The test concerns the target Tyrosine-protein kinase JAK1 (Homo sapiens, UniProt P23458). The experiment in a line: In vitro JAK Kinase Assay: The catalytic domains of human JAK1 (a.a. 837-1142), Jak2 (a.a. 828-1132) and Jak3 (a.a. 781-1124) with an N-terminal His tag were expressed using baculovirus in insect cells and purified. The catalytic activity of JAK1, JAK2 or JAK3 was assayed by measuring the phosphorylation of a biotinylated peptide. The phosphorylated peptide was detected by homogenous time resolved fluorescence (HTRF). […] Reactions were carried out at room temperature for 1 hr and then stopped with 20 μL 45 mM EDTA, 300 nM SA-APC, 6 nM Eu-Py20 in assay buffer (Perkin Elmer, Boston, Mass.). Binding to the Europium labeled antibody took place for 40 minutes and HTRF signal was measured on a Fusion plate reader (Perkin Elmer, Boston, Mass.).

Sequence of Tyrosine-protein kinase JAK1 (P23458 whole entry, the tested form may be a part): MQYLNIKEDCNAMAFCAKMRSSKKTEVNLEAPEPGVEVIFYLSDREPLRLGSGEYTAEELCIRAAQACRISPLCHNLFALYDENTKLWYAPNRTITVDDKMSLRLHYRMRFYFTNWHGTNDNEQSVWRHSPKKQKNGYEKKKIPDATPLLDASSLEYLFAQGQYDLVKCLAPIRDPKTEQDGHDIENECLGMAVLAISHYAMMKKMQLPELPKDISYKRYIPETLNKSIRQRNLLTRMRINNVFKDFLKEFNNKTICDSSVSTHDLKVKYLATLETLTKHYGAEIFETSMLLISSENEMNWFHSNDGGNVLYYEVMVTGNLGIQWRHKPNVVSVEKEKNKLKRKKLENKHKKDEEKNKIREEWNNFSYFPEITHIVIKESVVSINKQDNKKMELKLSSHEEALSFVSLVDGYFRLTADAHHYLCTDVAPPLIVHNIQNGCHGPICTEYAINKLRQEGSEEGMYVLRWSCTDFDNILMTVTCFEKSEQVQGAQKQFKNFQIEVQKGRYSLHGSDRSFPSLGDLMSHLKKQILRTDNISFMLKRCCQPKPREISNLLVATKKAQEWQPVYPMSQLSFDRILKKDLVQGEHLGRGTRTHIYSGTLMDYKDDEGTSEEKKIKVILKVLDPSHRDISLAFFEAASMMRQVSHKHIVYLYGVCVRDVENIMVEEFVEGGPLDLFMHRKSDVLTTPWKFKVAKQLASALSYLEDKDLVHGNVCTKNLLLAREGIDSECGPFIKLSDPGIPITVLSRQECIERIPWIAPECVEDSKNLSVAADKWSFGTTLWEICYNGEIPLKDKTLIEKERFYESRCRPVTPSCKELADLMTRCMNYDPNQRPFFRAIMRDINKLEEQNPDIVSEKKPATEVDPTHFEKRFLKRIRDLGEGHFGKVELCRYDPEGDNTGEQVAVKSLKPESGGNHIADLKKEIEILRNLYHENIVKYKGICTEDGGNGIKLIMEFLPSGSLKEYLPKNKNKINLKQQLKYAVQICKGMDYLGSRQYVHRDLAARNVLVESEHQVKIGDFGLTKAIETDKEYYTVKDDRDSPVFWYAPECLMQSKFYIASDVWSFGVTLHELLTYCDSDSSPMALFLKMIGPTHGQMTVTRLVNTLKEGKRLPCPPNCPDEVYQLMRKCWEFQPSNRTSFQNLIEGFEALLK

Take `N#CCC1(n2cc(-c3ncnc4[nH]ccc34)cn2)CN(C2CCN(C(=O)OCC3CCCCC3)CC2)C1`: the IC50 is < 5 nM.

Usually IC50 stands for the point on the concentration scale where inhibition reaches its midpoint.

Source of the values: ChEMBL document CHEMBL5727777, “Piperidin-4-yl azetidine derivatives as JAK1 inhibitors” (2020).
